Earlier results, collected in patent US20140066461A1, “METHODS FOR DIAGNOSING AND TREATING SCHIZOPHRENIA” (priority 2012, published 2014).

Experiments:
[1] = system: protein tyrosine phosphatases
BTK = BTK (Homo sapiens, UniProt Q06187)
[2] = system: patients with previously treated mantle cell lymphoma
rats [3] = system: rats
rats [4] = system: rats; remark: listed apart in the source

Sequence of BTK (Q06187 whole entry): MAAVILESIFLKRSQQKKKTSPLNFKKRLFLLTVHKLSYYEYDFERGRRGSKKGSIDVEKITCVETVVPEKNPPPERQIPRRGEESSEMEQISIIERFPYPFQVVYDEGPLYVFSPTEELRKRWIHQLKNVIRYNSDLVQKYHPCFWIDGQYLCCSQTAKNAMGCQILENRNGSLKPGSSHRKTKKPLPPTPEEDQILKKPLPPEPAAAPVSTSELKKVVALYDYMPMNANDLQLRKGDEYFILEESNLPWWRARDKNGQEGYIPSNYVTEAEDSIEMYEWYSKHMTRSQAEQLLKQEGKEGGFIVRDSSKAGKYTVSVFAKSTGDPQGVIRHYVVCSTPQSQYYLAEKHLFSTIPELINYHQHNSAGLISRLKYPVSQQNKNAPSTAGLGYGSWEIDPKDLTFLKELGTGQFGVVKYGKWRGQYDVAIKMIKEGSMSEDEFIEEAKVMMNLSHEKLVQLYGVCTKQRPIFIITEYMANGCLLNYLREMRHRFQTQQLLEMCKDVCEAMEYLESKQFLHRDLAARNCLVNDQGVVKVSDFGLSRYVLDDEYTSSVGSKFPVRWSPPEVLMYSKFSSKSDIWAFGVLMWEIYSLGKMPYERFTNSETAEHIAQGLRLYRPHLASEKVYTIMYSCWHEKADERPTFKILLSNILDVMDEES

## Cc1ccc(S(=O)(=O)/C=C/C#N)cc1 [BAY-11-7082]
[1]
  inhibition of protein tyrosine phosphatases: act as inhibitors of protein tyrosine phosphatases

## Nc1ncnc2c1c(-c1ccc(Oc3ccccc3)cc1)nn2C1CCCC1 [PCI-29732]
BTK
  mode of BTK inhibition: reversible BTK inhibitor

## C=CC(=O)N1CCC[C@@H](n2nc(-c3ccc(Oc4ccccc4)cc3)c3c(N)ncnc32)C1 [PCI-32765]
[2]; 560 mg/day
  complete responses: About 15%
[2]; 560 mg/day, 51 patients evaluable for efficacy, early in the trial
  objective responses (partial plus complete): 69%
[2]; MCL study, accompanied by large increases in lymphocyte counts in circulation
  effect on lymph nodes: rapid shrinkage of lymph nodes swollen with malignant cells
[2]; preliminary data, ongoing phase II trial
  patients exhibiting complete or partial responses: About two-thirds
[2]; small trials, mantle cell lymphoma
  toxicity: low toxicity

## O=C(CCCN1CCC(O)(c2ccc(Cl)cc2)CC1)c1ccc(F)cc1 [haloperidol]
Rats [3]
  effects of amphetamine on attention: reverse the effects of amphetamine on attention in rats
Rats [4]
  picrotoxin effect on prepulse inhibition of startle: reduces this effect
